The source made the active and inactive calls.
Tests used:
[1] = target: T1, Polyadenylate-binding protein 1 (Homo sapiens, UniProt P11940); test: MLLE binding blockers, Cy5 peptide tracer – biochemical, fluorescence polarization, Cy5-PAM2 peptide, secondary, miRNA deadenylation inhibitor project, dose response (AID 602260); format: functional; settings: read-out: IC50_Mean
[2] = target: T1, Polyadenylate-binding protein 1; test: MLLE domain peptide-binding blockers, IC50 – biochemical, fluorescence polarization, FITC-PAM2 peptide, dose response (AID 602259); format: functional; settings: read-out: IC50_Mean
[3] = target: FAD-linked sulfhydryl oxidase ALR (Homo sapiens, UniProt P55789); test: ALR-catalysed DTT oxidation blockers – biochemical, H2O2 detection, luminescence, cherry-pick, dose response (AID 493248)
[4] = intracellular Trypanosoma cruzi inhibitors in host cells – cell-based, plate reader, cherry-pick samples, set 3, dose response (AID 651818); format: functional;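 note: compounds incubated with infected cells for about four days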
[5] = target: T2, Histone-lysine N-methyltransferase NSD2 (Homo sapiens, UniProt O96028); format: biochemical
T2 sequence (O96028 whole entry): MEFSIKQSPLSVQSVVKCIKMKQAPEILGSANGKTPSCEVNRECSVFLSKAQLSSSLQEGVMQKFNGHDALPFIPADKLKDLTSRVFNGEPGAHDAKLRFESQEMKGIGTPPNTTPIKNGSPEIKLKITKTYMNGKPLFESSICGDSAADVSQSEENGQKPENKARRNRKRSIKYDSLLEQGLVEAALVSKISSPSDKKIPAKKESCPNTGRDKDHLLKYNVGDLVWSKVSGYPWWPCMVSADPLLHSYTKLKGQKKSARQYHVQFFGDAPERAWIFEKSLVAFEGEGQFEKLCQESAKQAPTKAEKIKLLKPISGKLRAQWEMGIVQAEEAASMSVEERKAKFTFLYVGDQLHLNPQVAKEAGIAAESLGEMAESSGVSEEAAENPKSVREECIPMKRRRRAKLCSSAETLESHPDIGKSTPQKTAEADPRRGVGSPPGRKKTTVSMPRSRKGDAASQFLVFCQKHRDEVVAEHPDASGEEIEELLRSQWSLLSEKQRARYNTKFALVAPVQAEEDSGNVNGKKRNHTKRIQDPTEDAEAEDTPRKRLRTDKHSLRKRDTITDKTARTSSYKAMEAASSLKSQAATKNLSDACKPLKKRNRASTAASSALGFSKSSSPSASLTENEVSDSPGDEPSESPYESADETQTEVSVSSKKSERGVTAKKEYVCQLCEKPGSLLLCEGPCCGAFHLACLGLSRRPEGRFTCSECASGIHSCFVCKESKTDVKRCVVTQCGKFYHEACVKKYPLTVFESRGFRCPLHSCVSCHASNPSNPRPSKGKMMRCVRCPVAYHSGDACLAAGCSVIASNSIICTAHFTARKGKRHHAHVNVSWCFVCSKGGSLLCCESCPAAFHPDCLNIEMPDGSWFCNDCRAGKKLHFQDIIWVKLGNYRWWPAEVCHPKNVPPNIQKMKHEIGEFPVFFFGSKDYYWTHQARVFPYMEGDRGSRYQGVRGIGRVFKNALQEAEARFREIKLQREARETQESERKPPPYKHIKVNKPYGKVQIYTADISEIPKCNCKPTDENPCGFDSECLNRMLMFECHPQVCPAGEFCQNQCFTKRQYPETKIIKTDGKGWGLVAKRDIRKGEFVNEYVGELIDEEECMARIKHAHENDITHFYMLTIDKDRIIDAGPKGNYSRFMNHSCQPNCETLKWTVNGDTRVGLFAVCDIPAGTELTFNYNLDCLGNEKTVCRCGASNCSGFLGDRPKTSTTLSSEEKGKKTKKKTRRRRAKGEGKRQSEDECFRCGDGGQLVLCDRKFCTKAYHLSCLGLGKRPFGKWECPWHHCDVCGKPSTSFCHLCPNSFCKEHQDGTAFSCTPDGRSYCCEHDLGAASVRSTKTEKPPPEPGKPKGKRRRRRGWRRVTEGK

Genome polyprotein = Genome polyprotein (dengue virus type 2, UniProt P29990); test: flavivirus cap methylation enzyme inhibition – biochemical, confirmation dose response, primary screen (AID 588689); format: functional
[6] = viability of uninfected HEp-2 cells – cell-based, HTS, cytotoxicity control for RSV inhibitor project, dose response (AID 2410); format: functional; settings: human respiratory syncytial virus

FAD-linked sulfhydryl oxidase ALR, sequence (P55789 whole entry): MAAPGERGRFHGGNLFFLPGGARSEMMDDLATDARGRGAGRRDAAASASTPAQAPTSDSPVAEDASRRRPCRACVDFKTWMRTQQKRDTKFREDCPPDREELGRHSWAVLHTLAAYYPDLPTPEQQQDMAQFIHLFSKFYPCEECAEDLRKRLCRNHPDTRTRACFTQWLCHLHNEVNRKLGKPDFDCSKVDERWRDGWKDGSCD
T1 sequence (P11940 whole entry, the tested form may be a part): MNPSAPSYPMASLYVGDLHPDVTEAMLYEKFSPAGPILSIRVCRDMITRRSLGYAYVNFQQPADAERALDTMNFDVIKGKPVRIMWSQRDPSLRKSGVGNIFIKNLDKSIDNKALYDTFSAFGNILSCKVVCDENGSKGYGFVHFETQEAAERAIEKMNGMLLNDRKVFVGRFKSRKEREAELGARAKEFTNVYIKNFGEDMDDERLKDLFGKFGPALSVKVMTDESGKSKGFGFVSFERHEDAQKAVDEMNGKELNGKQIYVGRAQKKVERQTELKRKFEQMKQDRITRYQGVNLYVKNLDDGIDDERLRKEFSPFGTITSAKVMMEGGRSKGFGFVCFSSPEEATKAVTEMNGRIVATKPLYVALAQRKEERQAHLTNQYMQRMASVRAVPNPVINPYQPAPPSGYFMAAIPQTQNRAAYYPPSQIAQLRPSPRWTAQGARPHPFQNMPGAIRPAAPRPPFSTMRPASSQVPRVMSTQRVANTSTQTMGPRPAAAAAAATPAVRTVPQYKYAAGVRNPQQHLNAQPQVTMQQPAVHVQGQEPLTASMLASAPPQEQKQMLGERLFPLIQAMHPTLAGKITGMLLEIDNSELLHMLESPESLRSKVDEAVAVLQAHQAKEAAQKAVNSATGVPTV
Genome polyprotein, sequence (P29990 2492-3391 limits assumed): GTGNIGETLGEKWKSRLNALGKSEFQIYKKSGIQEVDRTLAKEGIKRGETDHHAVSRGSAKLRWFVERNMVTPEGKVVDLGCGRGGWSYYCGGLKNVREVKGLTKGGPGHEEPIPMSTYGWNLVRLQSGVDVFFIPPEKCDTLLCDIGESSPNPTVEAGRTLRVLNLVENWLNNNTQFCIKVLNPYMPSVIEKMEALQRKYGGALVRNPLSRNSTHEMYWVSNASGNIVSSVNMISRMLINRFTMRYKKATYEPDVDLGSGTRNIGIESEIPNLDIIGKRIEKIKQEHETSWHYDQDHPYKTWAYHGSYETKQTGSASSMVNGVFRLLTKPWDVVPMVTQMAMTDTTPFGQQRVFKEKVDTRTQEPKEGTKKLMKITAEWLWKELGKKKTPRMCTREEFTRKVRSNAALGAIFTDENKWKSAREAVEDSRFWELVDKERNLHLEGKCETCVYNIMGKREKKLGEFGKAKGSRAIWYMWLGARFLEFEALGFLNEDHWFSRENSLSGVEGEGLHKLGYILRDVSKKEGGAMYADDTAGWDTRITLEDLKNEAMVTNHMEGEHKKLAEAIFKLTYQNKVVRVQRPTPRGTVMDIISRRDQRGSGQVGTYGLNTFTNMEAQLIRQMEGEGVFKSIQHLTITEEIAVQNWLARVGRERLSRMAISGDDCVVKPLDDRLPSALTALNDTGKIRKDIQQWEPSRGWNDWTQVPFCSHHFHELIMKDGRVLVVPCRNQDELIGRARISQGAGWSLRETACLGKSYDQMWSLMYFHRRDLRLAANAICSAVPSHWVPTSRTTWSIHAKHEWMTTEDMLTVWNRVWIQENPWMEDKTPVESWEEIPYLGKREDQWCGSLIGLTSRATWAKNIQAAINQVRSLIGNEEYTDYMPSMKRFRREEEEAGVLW

Row | Compound | AC50 [4] | other results
1 | Cc1noc(C)c1-c1csc(N2CCC(C(N)=O)CC2)n1 |  | IC50 [1]: > 66 µM (inactive); IC50 [2]: > 66 µM (inactive)
2 | CSCC[C@H](NC(=O)N1CCn2c1nc1ccccc12)C(=O)N1CCCCC1 |  | AC50 [3]: 4.31 µM (active)
3 | C[C@H]1CN([C@@H](C)CO)C(=O)Cc2cc(NS(=O)(=O)c3ccc(F)cc3)ccc2O[C@H]1CN(C)Cc1ccc(C(=O)Nc2ccccc2N)cc1 | 2.64 µM (active) | 
4 | C[C@H]1CN([C@@H](C)CO)C(=O)c2cc(NC(=O)Cc3cn(C)c4ccccc34)ccc2O[C@H]1CN(C)S(=O)(=O)c1ccc(Cl)cc1 | 2.81 µM (active) | 
5 | C[C@H](CO)N1C[C@H](C)[C@H](CN(C)Cc2ccc(C(F)(F)F)cc2)Oc2c(NC(=O)Nc3ccc(C(F)(F)F)cc3)cccc2C1=O | 4.77 µM (active) | 
6 | C[C@@H]1CN([C@@H](C)CO)C(=O)Cc2cc(NC(=O)Nc3ccc4c(c3)OCO4)ccc2O[C@@H]1CN(C)Cc1ccc(Oc2ccccc2)cc1 | 2.77 µM (active) | 
7 | C[C@@H]1CN([C@@H](C)CO)C(=O)Cc2cc(NC(=O)Nc3cccc4ccccc34)ccc2O[C@@H]1CN(C)Cc1ccc(-c2ccccc2)cc1 | 3.22 µM (active) | 
8 | C[C@H](CO)N1C[C@H](C)[C@@H](CN(C)Cc2ccc(C(=O)Nc3ccccc3N)cc2)Oc2c(NC(=O)C3CC3)cccc2C1=O | 1.13 µM (active) | 
9 | COc1ccc(CN(C)C[C@H]2Oc3ccc(NC(=O)C4CCCCC4)cc3CC(=O)N([C@@H](C)CO)C[C@@H]2C)cc1 | 1.2 µM (active) | 
10 | COc1ccc(S(=O)(=O)Nc2cccc3c2O[C@@H](CN(C)Cc2ccc(C(=O)Nc4ccccc4N)cc2)[C@@H](C)CN([C@H](C)CO)C3=O)cc1 | 4.14 µM (active) | 
11 | O=C1Nn2c(nc3c(c2=O)CCCC3)/C1=N/Nc1cccc(C(F)(F)F)c1 |  | AC50 [5]: > 20 µM (inactive); IC50 (Genome polyprotein): 28.7 µM (active); CC50 [6]: 25.1 µM (active)
12 | Cn1cccc1/C=N/n1c(S)nnc1-c1ccc(Cl)cc1Cl |  | AC50 [3]: 1.07 µM (active)
13 | C/C(=N\NC(=O)CN1CCN(S(=O)(=O)c2ccc(C)cc2)CC1)c1ccc(O)cc1 |  | AC50 [3]: 2.92 µM (active)
